# Activity calls are given as the source filed them.
# Tests used:
# [1] = HeLa cell viability loss – plate reader, dry powder, cytotoxicity control, dose response (AID 651946); type: functional, cell-based
# [2] = biological target: T1, Heat shock factor protein 1 (Mus musculus, UniProt P38532); assay: decrease of HSF1-responsive luciferase luminescence – cell-based, NIH3T3, dose retest, confirmation (AID 2382); type: functional;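 further: NIH3T3 fibroblasts with HSF1-driven luciferase reporter stressed by proteasome inhibitor MG132; luminescence from HSF1-driven luciferase expression after 8 hours of MG132 stress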
# T1 sequence (P38532 whole entry): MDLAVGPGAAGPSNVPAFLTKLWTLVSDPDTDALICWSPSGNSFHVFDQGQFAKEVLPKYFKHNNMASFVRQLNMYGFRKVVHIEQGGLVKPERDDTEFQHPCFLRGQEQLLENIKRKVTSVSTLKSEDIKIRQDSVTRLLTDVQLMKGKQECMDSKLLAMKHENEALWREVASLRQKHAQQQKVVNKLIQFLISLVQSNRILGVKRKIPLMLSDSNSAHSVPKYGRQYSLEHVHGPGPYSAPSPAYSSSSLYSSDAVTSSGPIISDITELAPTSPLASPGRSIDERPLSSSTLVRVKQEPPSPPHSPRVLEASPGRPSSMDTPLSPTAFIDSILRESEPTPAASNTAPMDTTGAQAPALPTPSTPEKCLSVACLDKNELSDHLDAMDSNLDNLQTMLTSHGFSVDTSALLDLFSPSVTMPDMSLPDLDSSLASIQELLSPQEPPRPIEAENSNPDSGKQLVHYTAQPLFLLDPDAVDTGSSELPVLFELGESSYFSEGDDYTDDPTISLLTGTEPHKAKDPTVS
# [3] = general mammalian cell viability loss – inhibitor set, cherry-pick, set 2, cytotoxicity control for miR-122 modulator project, dose response (AID 720697); type: functional, cell-based
# [4] = biological target: T2, RNA-editing ligase 1, mitochondrial (Trypanosoma brucei brucei, UniProt P86926); assay: inhibition of trypanosome RNA editing ligase – biochemical, fluorescence, Trypanosoma brucei, dose response (AID 1117295); type: functional
# T2 sequence (P86926 whole entry): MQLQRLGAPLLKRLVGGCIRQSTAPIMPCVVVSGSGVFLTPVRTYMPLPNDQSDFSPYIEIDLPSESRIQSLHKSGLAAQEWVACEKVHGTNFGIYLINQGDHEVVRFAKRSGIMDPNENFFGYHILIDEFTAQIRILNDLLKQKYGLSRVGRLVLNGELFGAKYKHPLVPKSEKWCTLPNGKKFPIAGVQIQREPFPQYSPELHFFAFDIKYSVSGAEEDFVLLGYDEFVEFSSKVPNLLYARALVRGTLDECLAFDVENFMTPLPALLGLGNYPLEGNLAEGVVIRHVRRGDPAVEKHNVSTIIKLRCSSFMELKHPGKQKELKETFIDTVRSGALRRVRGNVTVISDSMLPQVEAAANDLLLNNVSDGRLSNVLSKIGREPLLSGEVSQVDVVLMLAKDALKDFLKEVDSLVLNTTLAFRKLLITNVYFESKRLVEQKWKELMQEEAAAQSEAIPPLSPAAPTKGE
# [5] = activation of miR-122 Renilla sensor silencing – cell-based, Huh7 psiCHECK-miR122, Renilla luciferase, cherry-picked, dose response (AID 651956); type: functional;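 further: huh7 hepatoma cells stably carrying a psiCHECK-2 miR-122 sensor plasmid; renilla luciferase signal reporting endogenous miR-122 activity after 48 h compound exposure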
# [6] = biological target: G-protein coupled receptor 55 (Homo sapiens, UniProt Q9Y2T6); assay: selective activators of receptor GPR55 – imaging, U2OS cells, beta-arrestin-GFP redistribution, primary screen (AID 1961); type: functional
# Sequence of G-protein coupled receptor 55 (Q9Y2T6 whole entry): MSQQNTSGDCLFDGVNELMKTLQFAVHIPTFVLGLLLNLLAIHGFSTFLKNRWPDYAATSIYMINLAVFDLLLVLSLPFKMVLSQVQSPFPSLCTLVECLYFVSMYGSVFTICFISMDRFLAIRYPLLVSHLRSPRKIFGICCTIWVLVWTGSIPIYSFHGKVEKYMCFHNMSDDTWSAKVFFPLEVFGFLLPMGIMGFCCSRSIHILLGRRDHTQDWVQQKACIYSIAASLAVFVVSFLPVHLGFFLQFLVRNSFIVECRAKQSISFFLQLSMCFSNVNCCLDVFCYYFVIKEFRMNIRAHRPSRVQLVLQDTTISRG
# [7] = Luminescence Cell-Based Dose Retest to Confirm Inhibitors of Cancer Stem Cells. [Related pubchem assays (depositor defined):AID2717, AID2721]; type: functional; details: Homo sapiens
# [8] = biological target: T3, RNA-binding protein pos-1 (Caenorhabditis elegans, UniProt G5EF15); assay: disruptors of C. elegans POS-1 RNA interaction – biochemical, fluorescence polarization, dose response (AID 1964);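 further: purified POS-1 fused to maltose binding protein made in E. coli; potency of compounds blocking POS-1 binding to fluorescent RNA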
# T3 sequence (G5EF15 whole entry): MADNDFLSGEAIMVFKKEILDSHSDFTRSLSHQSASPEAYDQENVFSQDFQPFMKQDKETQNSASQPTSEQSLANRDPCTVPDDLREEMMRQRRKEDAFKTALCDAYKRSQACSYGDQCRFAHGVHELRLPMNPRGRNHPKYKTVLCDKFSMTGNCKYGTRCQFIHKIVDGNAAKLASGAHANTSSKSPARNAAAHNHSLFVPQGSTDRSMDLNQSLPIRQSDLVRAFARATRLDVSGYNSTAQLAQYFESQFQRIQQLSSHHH
# [9] = biological target: T4, Zinc finger protein mex-5 (Caenorhabditis elegans, UniProt Q9XUB2); assay: potency of MEX-5 RNA-binding blockers – biochemical, C. elegans, fluorescence polarization, dose response (AID 1960)
# T4 sequence (Q9XUB2 whole entry): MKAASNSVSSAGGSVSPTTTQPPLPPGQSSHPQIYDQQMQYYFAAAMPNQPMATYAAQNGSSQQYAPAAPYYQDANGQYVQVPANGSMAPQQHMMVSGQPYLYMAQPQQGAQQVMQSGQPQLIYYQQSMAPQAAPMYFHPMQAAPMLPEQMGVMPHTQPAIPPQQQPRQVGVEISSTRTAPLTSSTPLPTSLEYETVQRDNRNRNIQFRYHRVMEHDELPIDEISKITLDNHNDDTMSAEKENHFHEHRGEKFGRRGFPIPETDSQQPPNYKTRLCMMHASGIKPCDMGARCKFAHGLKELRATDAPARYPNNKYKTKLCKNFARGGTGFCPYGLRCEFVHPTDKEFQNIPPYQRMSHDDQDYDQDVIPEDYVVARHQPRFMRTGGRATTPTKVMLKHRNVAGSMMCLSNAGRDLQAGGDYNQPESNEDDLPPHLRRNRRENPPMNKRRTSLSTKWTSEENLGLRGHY
# [10] = general mammalian cell viability loss – activator set, cherry-pick, cytotoxicity control for miR-122 modulator project, dose response (AID 720690); type: functional, cell-based;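 further: HEK293T human cells scored for general mammalian cytotoxicity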
# HeLa = assay: viability loss in HeLa cells – cell-based, ATP luminescence, cherry-pick samples, cytotoxicity control, dose response (AID 687004); type: functional; details: Homo sapiens
# [11] = Counterscreen for inhibitors of Trypanosoma brucei methionyl tRNA synthetase (MetRS): Luminescence-based cell-based high throughput dose response assay to identify compounds that are cytotoxic to Jurkat human T lymphocyte cells.; type: functional
# [12] = biological target: T5, Methionyl-tRNA synthetase, putative (Trypanosoma brucei brucei, UniProt Q38C91); type: functional, Trypanosoma brucei brucei strain 927/4 GUTat10.1
# T5 sequence (Q38C91 whole entry): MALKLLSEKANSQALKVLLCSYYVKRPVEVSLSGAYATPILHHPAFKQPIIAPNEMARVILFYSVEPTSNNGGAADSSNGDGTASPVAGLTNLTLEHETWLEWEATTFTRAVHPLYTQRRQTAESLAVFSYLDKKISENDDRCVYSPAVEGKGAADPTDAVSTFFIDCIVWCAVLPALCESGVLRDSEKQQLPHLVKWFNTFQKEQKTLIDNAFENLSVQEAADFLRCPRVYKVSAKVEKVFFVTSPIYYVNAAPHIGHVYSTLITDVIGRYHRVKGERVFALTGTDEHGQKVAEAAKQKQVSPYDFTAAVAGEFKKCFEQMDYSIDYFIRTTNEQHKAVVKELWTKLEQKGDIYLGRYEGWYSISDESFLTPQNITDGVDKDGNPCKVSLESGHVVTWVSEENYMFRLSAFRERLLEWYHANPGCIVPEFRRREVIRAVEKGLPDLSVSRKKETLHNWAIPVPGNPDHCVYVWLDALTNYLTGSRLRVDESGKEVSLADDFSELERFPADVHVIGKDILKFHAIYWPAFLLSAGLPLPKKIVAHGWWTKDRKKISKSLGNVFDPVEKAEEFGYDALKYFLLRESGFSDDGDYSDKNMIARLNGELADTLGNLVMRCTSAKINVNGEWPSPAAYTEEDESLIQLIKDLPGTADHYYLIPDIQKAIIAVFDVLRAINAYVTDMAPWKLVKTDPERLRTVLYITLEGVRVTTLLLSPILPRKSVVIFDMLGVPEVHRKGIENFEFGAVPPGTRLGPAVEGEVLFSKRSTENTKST
# [13] = biological target: T5, Methionyl-tRNA synthetase, putative; type: functional, Trypanosoma brucei brucei strain 927/4 GUTat10.1; remark: listed apart in the source
# cells [14] = details: A549
# [15] = viability loss in HepG2 liver cells – cell-based, ATP luminescence, cherry-pick, set 6, cytotoxicity control, dose response (AID 1053125); type: functional
# cells [16] = details: HEK293
# [17] = Late stage assay provider results from the probe development effort to identify inhibitors of the Plasmodium falciparum M17 Leucine Aminopeptidase (M17LAP): radiolabel-based cell-based dose response assay to identify compounds that inhibit P. falciparum growth in RBCs Set 2.; type: functional
# [18] = toxicity toward HepG2 hepatoma cells – cell-based, dry powder samples, cytotoxicity control, dose response (AID 720568); type: functional
# [19] = Luminescence Cell-Based Dose Response HTS to Identify Inhibitors of 5'UTR Stem-Loop Driven Prion Protein mRNA Translation in H4 Neuroglioblastoma Cells. [Related pubchem assays: 1827 (Project Summary), 1813 (Primary HTS)]; type: functional
# [20] = biological target: T6, Mannose-6-phosphate isomerase (Homo sapiens, UniProt P34949); assay: MPI enzyme activity inhibition – biochemical, fluorescence intensity, coupled assay, primary screen (AID 1209)
# T6 sequence (P34949 whole entry): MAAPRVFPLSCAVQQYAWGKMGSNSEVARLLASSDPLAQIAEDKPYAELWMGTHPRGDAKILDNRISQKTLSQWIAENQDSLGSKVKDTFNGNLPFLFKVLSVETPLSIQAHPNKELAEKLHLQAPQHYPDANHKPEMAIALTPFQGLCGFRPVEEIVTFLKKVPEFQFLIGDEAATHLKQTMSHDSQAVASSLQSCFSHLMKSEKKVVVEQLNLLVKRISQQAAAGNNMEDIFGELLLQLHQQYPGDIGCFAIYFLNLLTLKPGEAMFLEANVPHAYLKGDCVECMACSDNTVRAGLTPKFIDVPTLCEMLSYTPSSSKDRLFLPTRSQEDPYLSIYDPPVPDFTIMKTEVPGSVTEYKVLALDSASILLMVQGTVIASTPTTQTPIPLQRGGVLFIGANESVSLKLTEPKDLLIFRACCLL
# [21] = luciferase reporter signal suppression in cells – H4 neuroglioma cells, luminescence, dose response (AID 1990); type: functional, cell-based
# Genome polyprotein = Genome polyprotein (dengue virus type 2, UniProt P29990); assay: flavivirus cap methylation enzyme inhibition – biochemical, confirmation dose response, primary screen (AID 588689); type: functional
# Sequence of Genome polyprotein (P29990 2492-3391 limits assumed): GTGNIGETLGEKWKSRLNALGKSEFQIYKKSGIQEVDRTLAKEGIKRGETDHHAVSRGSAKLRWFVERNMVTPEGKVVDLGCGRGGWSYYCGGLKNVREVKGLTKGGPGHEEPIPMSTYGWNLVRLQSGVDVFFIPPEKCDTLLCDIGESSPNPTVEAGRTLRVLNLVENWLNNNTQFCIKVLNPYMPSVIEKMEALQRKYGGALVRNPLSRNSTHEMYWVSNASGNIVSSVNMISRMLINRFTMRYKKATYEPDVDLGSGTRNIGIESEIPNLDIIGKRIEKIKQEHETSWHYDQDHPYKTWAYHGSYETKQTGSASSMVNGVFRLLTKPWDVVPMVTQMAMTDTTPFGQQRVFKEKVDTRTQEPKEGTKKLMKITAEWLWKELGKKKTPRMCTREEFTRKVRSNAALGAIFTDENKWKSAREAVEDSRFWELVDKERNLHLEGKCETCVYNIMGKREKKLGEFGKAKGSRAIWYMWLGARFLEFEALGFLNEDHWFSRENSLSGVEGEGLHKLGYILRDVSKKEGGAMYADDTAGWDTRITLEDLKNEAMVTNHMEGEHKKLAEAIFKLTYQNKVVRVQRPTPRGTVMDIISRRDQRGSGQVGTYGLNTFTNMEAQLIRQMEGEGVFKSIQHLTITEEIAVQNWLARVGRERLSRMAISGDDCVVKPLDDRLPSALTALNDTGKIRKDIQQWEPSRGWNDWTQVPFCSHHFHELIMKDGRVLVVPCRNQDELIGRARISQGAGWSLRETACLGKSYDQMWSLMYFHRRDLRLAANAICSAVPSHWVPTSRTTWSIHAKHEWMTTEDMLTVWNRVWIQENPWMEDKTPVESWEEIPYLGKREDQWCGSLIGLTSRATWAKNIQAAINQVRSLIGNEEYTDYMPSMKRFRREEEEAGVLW
# [22] = alpha-synuclein stem-loop luciferase translation blockers – H4 neuroglioma cells, luminescence, confirmation (AID 1988); type: functional, cell-based
# [23] = biological target: T7, Nuclear receptor subfamily 0 group B member 1 (Homo sapiens, UniProt P51843); type: functional, cell-based;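 further: HEK293T cells transfected with SF-1 and DAX-1 plus StAR promoter luciferase reporter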
# T7 sequence (P51843 whole entry): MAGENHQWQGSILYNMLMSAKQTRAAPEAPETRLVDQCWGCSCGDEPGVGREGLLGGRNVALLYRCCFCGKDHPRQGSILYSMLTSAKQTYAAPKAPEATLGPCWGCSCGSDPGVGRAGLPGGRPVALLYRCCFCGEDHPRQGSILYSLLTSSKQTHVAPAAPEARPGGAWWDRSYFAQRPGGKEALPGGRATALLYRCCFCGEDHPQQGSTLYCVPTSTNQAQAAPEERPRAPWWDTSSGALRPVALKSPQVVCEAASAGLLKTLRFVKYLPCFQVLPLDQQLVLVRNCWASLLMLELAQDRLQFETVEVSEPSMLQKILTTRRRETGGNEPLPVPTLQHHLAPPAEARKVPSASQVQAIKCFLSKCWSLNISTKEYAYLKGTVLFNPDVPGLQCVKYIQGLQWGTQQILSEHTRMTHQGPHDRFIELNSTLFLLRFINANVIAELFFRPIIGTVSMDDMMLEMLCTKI
# cells [24] = type: functional, cell-based
# HEK293 = assay: EBV LMP1 TES2 canonical NF-kB signalling blockers – cell-based, HEK293, luciferase, cherry-pick, dose response (AID 588343); type: functional; details: Homo sapiens
# [25] = biological target: Endoplasmic reticulum aminopeptidase 1 (Homo sapiens, UniProt Q9NZ08); assay: inhibition of human ERAP1 enzyme activity – biochemical, cherry-pick, set 2, plate reader, dose response (AID 743314)
# Sequence of Endoplasmic reticulum aminopeptidase 1 (Q9NZ08 whole entry): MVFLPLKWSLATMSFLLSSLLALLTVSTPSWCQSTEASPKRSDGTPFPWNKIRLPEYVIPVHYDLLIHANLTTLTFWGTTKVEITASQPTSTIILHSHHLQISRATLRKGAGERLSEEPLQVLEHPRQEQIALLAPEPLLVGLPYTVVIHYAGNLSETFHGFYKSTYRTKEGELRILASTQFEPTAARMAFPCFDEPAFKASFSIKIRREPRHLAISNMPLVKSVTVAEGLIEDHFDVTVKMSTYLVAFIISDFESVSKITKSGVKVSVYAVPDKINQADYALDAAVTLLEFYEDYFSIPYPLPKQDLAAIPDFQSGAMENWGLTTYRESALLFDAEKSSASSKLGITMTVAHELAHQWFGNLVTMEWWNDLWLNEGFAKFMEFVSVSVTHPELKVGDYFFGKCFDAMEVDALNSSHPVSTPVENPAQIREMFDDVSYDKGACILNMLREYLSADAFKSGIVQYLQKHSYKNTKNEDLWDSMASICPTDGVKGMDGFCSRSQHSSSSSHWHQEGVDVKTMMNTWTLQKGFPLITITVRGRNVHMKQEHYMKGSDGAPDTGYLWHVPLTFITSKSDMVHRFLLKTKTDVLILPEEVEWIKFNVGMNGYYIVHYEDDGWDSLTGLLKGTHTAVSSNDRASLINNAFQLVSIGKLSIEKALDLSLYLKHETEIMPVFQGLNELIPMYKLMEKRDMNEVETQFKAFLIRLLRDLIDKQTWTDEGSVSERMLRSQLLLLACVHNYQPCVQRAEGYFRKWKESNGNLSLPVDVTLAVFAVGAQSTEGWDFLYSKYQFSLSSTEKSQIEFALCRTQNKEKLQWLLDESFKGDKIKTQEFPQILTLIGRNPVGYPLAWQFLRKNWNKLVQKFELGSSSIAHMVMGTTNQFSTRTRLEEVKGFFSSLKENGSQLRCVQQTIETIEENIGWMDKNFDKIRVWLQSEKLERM
# [26] = ATP-based viability loss in HeLa cells – cell-based, CellTiter-Glo luminescence, dry powder, set 2, cytotoxicity control, dose response (AID 720593); type: functional
# [27] = A Cell-Based Confirmatory Screen for Compounds that Inhibit VEEV, TC-83 (7).; type: functional
# [28] = A Cell-Based Confirmatory Screen for Compounds that Inhibit VEEV, TC-83 (8).; type: functional
# [29] = T. cruzi growth inhibition in host cells, dose response, cell-based, plate reader, dry powder, set 2 (AID 652275); type: functional
compound,measurement,setting,value
COCCOCCSc1nnc(-c2ccccc2)o1,AC50,[1],> 52 µM (inactive)
COc1cc2c(cc1OC)C(c1ccc(-c3ccc(Cl)c(Cl)c3)o1)=NCC2,EC50,[2],> 195 µM (not active)
same,AC50,[3],8.91 µM (active)
same,IC50,[4],35.8 µM (inactive)
same,AC50,[5],25.7 µM (active)
same,EC50,[6],> 32 µM (inactive)
same,AC50,[7],4.34 µM (active)
same,EC50,[8],> 300 µM (inconclusive)
same,EC50,[9],> 300 µM (not active)
same,AC50,[10],9.82 µM (active)
C(=Nn1cnnc1)c1ccc2c(c1)CCC2,AC50,HeLa,28.2 µM (active)
COC(=O)c1sc(-c2ccc(Cl)cc2)cc1NC(=O)COCC(=O)O,IC50,[11],83.2 µM (inactive)
same,IC50,[12],13.8 µM (inactive)
same,IC50,[13],18.7 µM (inactive)
N#CC1=C(N)Oc2cc(N)ccc2C1c1ccc(F)cc1F (configuration not stated),AC50,cells [14],31.8 µM (active)
same,AC50,[15],45.3 µM (active)
same,AC50,cells [16],> 52 µM (inactive)
CCCCOc1ccc(CC(=O)N(C)O)cc1,IC50,[17],15 µM (inactive)
O=C1CCNc2cc3ccccc3cc21,AC50,[18],5.57 µM (active)
same,EC50,[19],> 120 µM (not active)
same,IC50,[20],23.2 µM (active)
same,EC50,[21],> 60 µM (not active)
same,IC50,Genome polyprotein,> 100 µM (active)
same,EC50,[22],5.91 µM (active)
C(=Cc1nc2ccccc2o1)c1ccc2c(c1)OCO2,IC50,[23],> 0.0927 µM (active)
same,IC50,cells [24],> 67.6 µM (inactive)
same,AC50,HEK293,2.91 µM (active)
CCCN1[C@@H]2Cn3c(ccc(/C=C/c4ccccc4)c3=O)[C@H]1[C@@H](C(=O)NCc1ccccn1)[C@@H]2CO,AC50,[25],8.95 µM (active)
O=C(Nc1nc(-c2ccccn2)cs1)c1ccc(S(=O)(=O)N2CCOCC2)cc1,AC50,[26],41.1 µM (active)
COc1ccc(NC(=O)c2cc([N+](=O)[O-])ccc2/N=C2\CN(C)CCN2C)cc1,IC50,[27],0.04 µM (active)
same,IC50,[28],0.037 µM (active)
COc1ccc(C#Cc2cccc(-c3nc(C(=O)NCc4ccc5c(c4)OCO5)cc4c3[C@H](CCO)N([S+]([O-])C(C)(C)C)C4)c2)cc1OC (some centres not stated),AC50,[29],0.844 µM (active)
